According to the supplement of paper PMC3937590:

Assays:
Experiment in all cases: -log10 GI50 (growth inhibition 50%) (-log10(M)); higher = more potent growth inhibition
BT474 = tested on: BT474
Outline: (§1)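 A value carrying a < qualifier equals the top dose tested. Each compound was tested in triplicate on breast cancer cell lines for 72 hours at nine doses in 1:5 serial dilution, using a luminescence read-out against a time-zero plate. Nonlinear least squares fitting of a Gompertz curve gave GI50, the molar concentration causing the set level of growth inhibition, which is reported as its negative logarithm. The logarithm is base 10.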

BT549 = tested on: BT549
Outline: as §1

HCC1143 = tested on: HCC1143
Outline: as §1

HCC1395 = tested on: HCC1395
Outline: as §1

HCC1428 = tested on: HCC1428
Outline: as §1

HCC1937 = tested on: HCC1937
Outline: as §1

HCC1954 = tested on: HCC1954
Outline: as §1

HCC2185 = tested on: HCC2185
Outline: as §1

HCC38 = tested on: HCC38
Outline: as §1

HCC70 = tested on: HCC70
Outline: as §1

LY2 = tested on: LY2
Outline: as §1

MCF10F = tested on: MCF10F
Outline: as §1

MCF12A = tested on: MCF12A
Outline: as §1

MDAMB157 = tested on: MDAMB157
Outline: as §1

MDAMB415 = tested on: MDAMB415
Outline: as §1

SUM1315MO2 = tested on: SUM1315MO2
Outline: as §1

SUM149PT = tested on: SUM149PT
Outline: as §1

SUM225CWN = tested on: SUM225CWN
Outline: as §1

UACC812 = tested on: UACC812
Outline: as §1

BT483 = tested on: BT483
Outline: as §1

| SMILES | -log10 GI50 (BT474) | -log10 GI50 (BT549) | -log10 GI50 (HCC1143) | -log10 GI50 (HCC1395) | -log10 GI50 (HCC1428) | -log10 GI50 (HCC1937) | -log10 GI50 (HCC1954) | -log10 GI50 (HCC2185) | -log10 GI50 (HCC38) | -log10 GI50 (HCC70) | -log10 GI50 (LY2) | -log10 GI50 (MCF10F) | -log10 GI50 (MCF12A) | -log10 GI50 (MDAMB157) | -log10 GI50 (MDAMB415) | -log10 GI50 (SUM1315MO2) | -log10 GI50 (SUM149PT) | -log10 GI50 (SUM225CWN) | -log10 GI50 (UACC812) | -log10 GI50 (BT483) |
| --- | --- | --- | --- | --- | --- | --- | --- | --- | --- | --- | --- | --- | --- | --- | --- | --- | --- | --- | --- | --- |
| CC(=O)NCC(=O)N1[C@@H]2CC[C@H]1c1ccc(Nc3ncc(C(F)(F)F)c(NC4CCC4)n3)cc12 | 5.22 | 5.47 | 5.82 | 5.96 | 5.37 | 5.2 | 5.16 | 4.98 | 6.2 | 5.38 | 5.5 | 6.28 | 5.59 | 6.1 | 5.18 | 6.12 | 6.08 | 5.05 |  |  |
| CCC[C@H](N[C@H]1CCc2cc(F)cc(F)c2C1)C(=O)Nc1cn(C(C)(C)CNCC(C)(C)C)cn1 | 4.37 | < 4.18 | < 4.18 | < 4.18 | 4.45 | 4.54 | 4.84 | 4.99 | < 4.18 | 5.63 | 4.68 | < 4.18 | < 4.18 | 4.88 | 4.9 | 4.65 | 6.88 | 4.84 | < 4.18 |  |
| COc1cc2c(Nc3ccc(NC(=O)c4ccccc4)cc3)ncnc2cc1OCCCN1CCOCC1 | 4.29 | 5.47 | 6.07 | 5.3 | 4.56 | 5.23 | < 4.48 | 5.96 | 6.21 | 5.85 |  | < 4 | 5.12 | 5.66 | 5.45 | < 4.3 | < 4 | 4.98 | 5.41 | 4.56 |
| COc1ccc(-c2cc3c(C)nc(N)nc3n([C@H]3CC[C@H](OCCO)CC3)c2=O)cn1 | 6.91 | 6.38 | 6.86 | 7.02 | 6.51 | 6.92 | 6.88 | 7.12 | 6.51 | 7.31 | 7.04 | 6.8 | 6.39 | 6.13 | 7.08 | 7.06 | 7.08 | 6.79 | 7.74 |  |
| Cn1ncc(Cl)c1-c1cc(C(=O)N[C@H](CN)Cc2ccc(F)c(F)c2)oc1Cl | 7.16 | 5.45 | 5.41 |  | 4.94 |  |  | > 9.77 | 5.99 | 8.68 | 6.62 | 5.45 | 5.57 | 5.22 | 7.24 | 5.01 | 7.42 | 6.88 | 7.18 |  |
| Oc1cc(-c2nc(-c3ccccc3)[nH]c2-c2ccncc2)ccc1Cl | 4.79 | < 4.48 | 4.39 | 4.82 | 4.97 | 4.84 | < 4.48 | < 4.48 | 4.77 | 4.49 |  | 4.92 | 4.97 | 4.88 | 4.59 | 4.69 | 5.14 | 5.15 | 4.9 | 4.84 |
| CC(C)C[C@H](NC(=O)[C@H](Cc1ccccc1)NC(=O)c1cnccn1)B(O)O [Bortezomib] | 8.24 | 8.21 | 8.12 | 8.15 | 7.28 | 8.1 | 8.13 | 8.35 | 7.98 | 8.6 | 6.46 | 7.59 | 7.39 | 8.16 | 7.4 | 7.75 | 8 | 8 |  | 7.44 |
| O=C1c2ccccc2-[n+]2ccc3c([nH]c4ccccc43)c21 [Fascaplysin] | 6.73 | 6.28 | 6.56 | 6.49 | 7.43 | 6.41 | 6.57 | 6.9 | 6.56 | 6.9 | 8.1 | 6.58 | 6.45 | 6.77 | 7.22 | 6.38 | 6.4 | 7.25 |  | 7.18 |
| COC1=C2C[C@@H](C)C[C@H](OC)[C@H](O)[C@@H](C)/C=C(\C)[C@H](OC(N)=O)[C@@H](OC)/C=C\C=C(/C)C(=O)NC(=CC1=O)C2=O [Geldanamycin] | 7.84 | 8.22 | 7.1 | 7.42 | 7.55 | 7.49 | 8.14 | 7.69 | 7.56 | 7.09 | 7.24 | 8.14 | 7.73 | 7.71 | 7.52 | 7.7 | 8.22 |  | 7.97 | 6.84 |
| Cc1cncc2cccc(S(=O)(=O)N3CCCN(C(=O)CN)C[C@@H]3C)c12 [Glycyl H1152] | < 4.18 | 5.01 | 5.05 | 5.05 | < 4.18 | < 4.18 | < 4.48 | 5.62 | 5.96 | 6.04 | 6.28 | < 4.18 | 4.9 | < 4.18 | 5.03 | 5.15 | 4.57 | < 4.18 | 4.59 |  |
| O=C(c1ccc(Nc2nccc(-c3cc4ccccc4s3)n2)cc1)N1CCC(N2CCCC2)CC1 [IKK 16] | 5.27 | 5.4 | 5.3 | 5.86 | 5.4 | 5.59 | 5.77 | 5.13 | 5.45 | 5.54 | 5.26 | 5.37 | 5.39 | 5.74 |  | 5.81 | 5.82 | 5.51 | 5.09 |  |
| Cc1ccc(C(=O)N(CCCN)[C@@H](c2nc3cc(Cl)ccc3c(=O)n2Cc2ccccc2)C(C)C)cc1 [Ispinesib] | 7.29 | 7.34 | 7.29 | 7.64 | 5.37 | 6.56 | 7.52 | 7.53 | 7.33 | 7.34 | 6.06 | 7.57 | 7.25 | 7.5 | 7.05 | 7.39 | 7.48 | 6.99 |  | 6.08 |
| Cc1[nH]c2ccccc2c1CCNCc1ccc(/C=C/C(=O)NO)cc1 [LBH589] | 7.46 | 6.91 | 7.09 | 6.56 | 6.98 | 6.72 | 6.43 | 7.16 | 7.45 | 7.11 |  | 6.04 | 6.35 | 7.29 | 7.66 | 6.62 | 6.6 | 6.96 | 6.89 | 7.14 |
| COC(=O)Nc1nc2cc(C(=O)c3ccccc3)ccc2[nH]1 [Mebendazole] | 6.5 | 6.3 | 6.01 | 6.33 | < 4.18 | 4.9 | 6.82 | < 4.18 | 6.48 | 6.86 | 6.32 | 5.45 | 5.74 | 6.3 | 6.28 | < 4.18 | 6.18 |  | 4.9 | 5.67 |
| NS(=O)(=O)c1ccc(Nc2nc(OCC3CCCCC3)c3[nH]cnc3n2)cc1 [NU6102] | 4.79 | 4.6 | 4.87 | 5.03 | 4.87 | 4.27 | 4.34 | 4.84 | 5.03 | 4.71 | 4.56 | 5 | 4.8 | 4.26 | 4.58 | 5.42 | 5.14 | 4.3 | 4.42 |  |
| Cc1c(O)cccc1C(=O)N[C@@H](CSc1ccccc1)[C@H](O)CN1C[C@H]2CCCC[C@H]2C[C@H]1C(=O)NC(C)(C)C [Nelfinavir] | 4.9 | 4.99 | 5.13 | < 4.48 | 5.16 | 5.15 | 5.01 | < 4.48 | 4.78 | 4.75 | 5.05 | 4.99 | 4.64 | 5.09 | 5.25 | < 4.48 | 4.98 |  | < 4.48 | 5.01 |
| CC(=O)O[C@H]1C(=O)[C@@]2(C)[C@H]([C@H](OC(=O)c3ccccc3)[C@]3(O)C[C@H](OC(=O)[C@H](O)[C@@H](NC(=O)c4ccccc4)c4ccccc4)C(C)=C1C3(C)C)[C@]1(OC(C)=O)CO[C@@H]1C[C@@H]2O [Paclitaxel] | 7.99 | 8.16 | 7.8 | 7.71 | 7.58 | 7.81 | 8.15 | 8.22 | 8.13 | 8.03 | 7.97 | 8.08 | 7.97 | 8.27 | 8.18 | 8.29 | 8.03 |  | 8.08 | 7 |
| CC(C)[C@H](CO)Nc1nc(Nc2cccc(Cl)c2)c2ncn(C(C)C)c2n1 [Purvalanol A] | < 3.78 | < 3.78 | < 3.78 | < 3.78 | 4.18 | 4.37 | 4.11 | 4.43 | < 3.78 | < 3.78 |  | 4.74 | 4.15 | < 3.78 | < 3.78 | 5.09 | 4.88 | 4.36 |  | 4.4 |
| CO[C@H]1C[C@@H]2CC[C@@H](C)[C@@](O)(O2)C(=O)C(=O)N2CCCC[C@H]2C(=O)O[C@H]([C@H](C)C[C@@H]2CC[C@@H](O)[C@H](OC)C2)CC(=O)[C@H](C)/C=C(\C)[C@@H](O)[C@@H](OC)C(=O)[C@H](C)C[C@H](C)/C=C/C=C/C=C/1C [Rapamycin] | 7.62 | 5.33 | 6.27 | 4.84 | 7.29 | 5.91 | 8.45 | 8.79 | 7.31 | 6.92 |  | 5.44 | 7.08 | < 3.78 | 8.69 | 5.56 | 5.03 | 7.97 | 7.33 | 8.78 |
| CNC(=O)c1cc(Oc2ccc(NC(=O)Nc3ccc(Cl)c(C(F)(F)F)c3)cc2)ccn1 [Sorafenib] | 4.16 | 4.08 | 4.23 | 4.32 | 4.34 | 3.76 | 4.29 | 4.83 | 4.07 | 4.45 |  | 4.46 | 4.62 | 3.78 | 3.96 | 4.55 | 4.8 | 4.6 |  | 4.92 |
| CCC1=C[C@@H]2CN(C1)Cc1c([nH]c3ccccc13)[C@@](C(=O)OC)(c1cc3c(cc1OC)N(C)[C@H]1[C@@](O)(C(=O)OC)[C@H](OC(C)=O)[C@]4(CC)C=CCN5CC[C@]31[C@@H]54)C2 [Vinorelbine] | 7.32 | 8.02 | 6.49 | 8.45 | 5.66 | 6.65 | 6.24 | 5.23 | 7.94 | 7.66 | 7.88 | 7.75 | 7.91 | 7.89 | 7.73 | 8.65 | 7.85 |  | 7.13 | 8.14 |
| O=C(CCCCCCC(=O)Nc1ccccc1)NO [Vorinostat] | 4.27 | 3.83 | 3.9 | 3.49 | 4.42 |  | 3.95 | 4.28 | 4.47 | 4.46 | 3.86 | 3.08 | 3.77 | 4.01 | 3.96 | 3.77 | 4.02 | 3.84 | 4.37 | 4.23 |
